# Experiments:
# Assay type in all cases: in vivo
# [1] = test system: round-leaved cranesbill (Geranium rotundifolium, GERRT); assay: Postemergence field trial #3, visual weed control in vines; conditions: 83 to 158 days after application, penoxsulam 7 and/or flazasulfuron 25 grams ai/ha
# Procedure: (§1) These trials were conducted under field conditions in France. Trial sites were located in commercially grown vines of European grape (Vitis vinifera). The grapes were grown using normal cultural practices for fertilization, seeding, and maintenance to ensure good growth of the crop and the weeds. The trials were conducted using normal research methodology. Trial plots were between 2 to 4.5 meters (m) wide by 5.5 to 10 m long. All treatments were applied using a randomized complete block trial design with 3 or 4 replications per treatment. The trial sites had naturally occurring populations of weeds. The weed spectrum included, but was not limited to, black nightshade (Solanum nigrum, SOLNI), pigeongrass or foxtail millet (Setaria sp., SETSS), common lambsquarter (Chenopodium album, CHEAL), round-leaved cranesbill (Geranium rotundifolium, GERRT), common groundsel (Senecio vulgaris, SENVU), mallow (Malva L., MALSS) and common purslane (Portulaca oleracea, POROL).
# (§2) Treatments consisted of tank mixes of an oil dispersion of penoxsulam and commercially available formulations of flazasulfuron (Katana herbicide, water dispersible granules) applied in water. The application volumes were between 150-325 liters per hectare (L/ha). All application were made using precision gas hand sprayers using a 2 or 3 m boom using flat fan (80° or 110°) nozzles to broadcast the treatments on the soil.
# (§3) The treated plots and control plots were rated blind at various intervals after application. Ratings were based of Percent (%) Visual weed control, where 0 corresponds to no injury and 100 corresponds to complete kill.
# (§4) Colby's equation was used to determine the herbicidal effects expected from the mixtures (Colby, S. R. Calculation of the synergistic and antagonistic response of herbicide combinations. Weeds 1967 15, 20-22).
# (§5) The following equation was used to calculate the expected activity of mixtures containing two active ingredients, A and B: Expected=A+B−(A×B/100)
# (§6) A=observed efficacy of active ingredient A at the same concentration as used in the mixture;
# (§7) B=observed efficacy of active ingredient B at the same concentration as used in the mixture.
# [2] = test system: common groundsel (Senecio vulgaris, SENVU); assay: as above; conditions: 83 to 158 days after application, penoxsulam 7 and/or flazasulfuron 25 grams ai/ha
# Procedure: as §1, §2, §3, §4, §5, §6, §7
# [3] = test system: common purslane (Portulaca oleracea, POROL); assay: as above; conditions: 83 to 158 days after application, penoxsulam 7 and/or flazasulfuron 25 grams ai/ha
# Procedure: as §1, §2, §3, §4, §5, §6, §7
# [4] = test system: black nightshade (Solanum nigrum, SOLNI); assay: as above; conditions: 83 to 158 days after application, penoxsulam 7 and/or flazasulfuron 25 grams ai/ha
# Procedure: as §1, §2, §3, §4, §5, §6, §7
# [5] = test system: pigeongrass or foxtail millet (Setaria sp., SETSS); assay: Postemergence field trial #1, visual weed control in vines; conditions: 68 to 147 days after application, penoxsulam 7 and/or flazasulfuron 25 grams ai/ha
# Procedure: as §1, §2, §3, §4, §5, §6, §7
# [6] = test system: black nightshade (Solanum nigrum, SOLNI); assay: as above; conditions: France, 68 to 147 days after application, penoxsulam 7 and/or flazasulfuron 25 grams ai/ha; for SOLNI (2) Obs - percent control observed: Field trial #1, Echallat; for SOLNI (1) Obs - percent control observed: Field trial #1, Port A Binson
# Procedure: as §1, §2, §3, §4, §5, §6, §7
# [7] = test system: common lambsquarter (Chenopodium album, CHEAL); assay: as above; conditions: 68 to 147 days after application, penoxsulam 7 and/or flazasulfuron 25 grams ai/ha
# Procedure: as §1, §2, §3, §4, §5, §6, §7
# [8] = test system: round-leaved cranesbill (Geranium rotundifolium, GERRT); assay: Postemergence field trial #2, visual weed control in vines; conditions: 118 to 158 days after application, penoxsulam 7 and/or flazasulfuron 25 grams ai/ha
# Procedure: as §1, §2, §3, §4, §5, §6, §7
# [9] = test system: common groundsel (Senecio vulgaris, SENVU); assay: as above; conditions: 118 to 158 days after application, penoxsulam 7 and/or flazasulfuron 25 grams ai/ha
# Procedure: as §1, §2, §3, §4, §5, §6, §7
# mallow (Malva L., MALSS) = assay: as above; conditions: 118 to 158 days after application, penoxsulam 7 and/or flazasulfuron 25 grams ai/ha
# Procedure: as §1, §2, §3, §4, §5, §6, §7
# [10] = test system: common purslane (Portulaca oleracea, POROL); assay: as above; conditions: 118 to 158 days after application, penoxsulam 7 and/or flazasulfuron 25 grams ai/ha
# Procedure: as §1, §2, §3, §4, §5, §6, §7
SMILES,GERRT Obs - percent control observed [1] [%],SENVU Obs - percent control observed [2] [%],POROL Obs - percent control observed [3] [%],SOLNI Obs - percent control observed [4] [%],SETSS Obs - percent control observed [5] [%],SOLNI (2) Obs - percent control observed [6] [%],SOLNI (1) Obs - percent control observed [6] [%],CHEAL Obs - percent control observed [7] [%],GERRT Obs - percent control observed [8] [%],SENVU Obs - percent control observed [9] [%],"MALSS Obs - percent control observed (mallow (Malva L., MALSS)) [%]",POROL Obs - percent control observed [10] [%]
"COc1cc(OC)nc(NC(=O)NS(=O)(=O)c2ncccc2C(F)(F)F)n1 [Flazasulfuron, 1-(4,6-dimethoxypyrimidin-2-yl)-3-(3-trifluoromethyl-2-pyridylsulfonyl)urea]",23,30,78,1,73,58,6,63,23,30,53,78
COc1cnc(OC)n2nc(NS(=O)(=O)c3c(OCC(F)F)cccc3C(F)(F)F)nc12 [Penoxsulam],13,3,0,70,1,17,1,0,13,3,20,0
